Reference: US10259852B2, “Conjugate comprising P21 protein for the treatment of cancer” (ANASTASIS BIOTEC LIMITED, priority 2005, dated 2019)

What was measured:
ASPC1 = assay: Cell translocation experiment; type: cell-based, human; conditions: incubated 10 and 60 min, various dilutions, 37° C.
Procedure: (§1) The production of the fusion protein allowed a cell translocation experiment to be performed, to test the ability of the antennapedia-containing fusion protein to translocate across biological membranes. Two cell lines were used in this experiment, ASPC1 and HeLa (ASPC1—human pancreatic adenocarcinoma, HeLa—human cervical adenocarcinoma). The protein was incubated for 10 and 60 min on cells in various dilutions at 37° C. Translocation of the fusion protein was evident in both cell lines, even after only ten minutes of incubation.

HeLa = assay: Cell translocation experiment; type: cell-based, human; conditions: incubated 10 and 60 min, various dilutions, 37° C.
Procedure: as §1

P21 protein: P21 tumour suppressor protein expressed alone, without translocation factor; human P21 is SEQ ID NO:1
Translocation across cells (ASPC1): did not appear to translocate
Translocation across cells (HeLa): did not appear to translocate
